Laboratory results taken from patent publication US7468385B2, “Triazoles as oxytocin antagonists” (Laboratoires Serono SA, priority 2001, dated 2008).

Assays:
[1] = molecular target: T1, human Oxytocin (hOT) receptor (Homo sapiens, UniProt P30559); experiment: In vitro competition binding assay on hOT receptor with scintillation proximity assay ([125I]-OVTA); conditions: inhibition of 125I-OVTA binding; membranes from HEK293EBNA cells expressing the hOT receptor; read-out: Binding Affinity hOT-R (Ki)
T1 construct: expressed in transfected cells; host or cells: HEK293EBNA (membranes)
T1 sequence (P30559 1-389): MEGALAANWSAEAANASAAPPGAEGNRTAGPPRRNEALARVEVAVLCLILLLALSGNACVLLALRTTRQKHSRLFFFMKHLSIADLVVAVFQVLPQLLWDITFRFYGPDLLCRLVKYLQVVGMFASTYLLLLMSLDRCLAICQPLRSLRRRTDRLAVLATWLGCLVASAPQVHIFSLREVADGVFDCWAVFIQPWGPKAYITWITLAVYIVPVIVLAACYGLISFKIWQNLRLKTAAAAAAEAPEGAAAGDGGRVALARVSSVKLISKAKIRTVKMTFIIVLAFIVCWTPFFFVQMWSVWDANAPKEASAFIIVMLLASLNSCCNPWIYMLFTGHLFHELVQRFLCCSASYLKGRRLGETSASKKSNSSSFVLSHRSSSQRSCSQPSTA
Method: a) In vitro Competition Binding Assay on hOT Receptor with Scintillation Proximity Assay (18).
This assay allows to determine the affinity of the test compounds for the human Oxytocin (hOT) receptor. Membranes from HEK293EBNA (cells expressing the hOT receptor) were suspended in buffer containing 50 mM Tris-HCl, pH 7.4, 5 mM MgCl2 and 0.1% BSA (w/v). The membranes ([…]) were mixed with 0.1 mg SPA bead coated with wheat-germ aglutinin (WGA-PVT-Polyethylene Imine beads from Amersham) and […] of the radiolabelled [^125I]-OVTA (OVTA being Omithin Vasoactive, an analogue of OT for competitive binding experiments). Non-specific binding was determined in the presence of 1 μM Oxytocin. The total assay volume was 100 μL. The plates (Corning® NBS plate) were incubated at room temperature for 30 min and counted on a Mibrobeta® plate scintillation counter. Competitive binding was performed in presence of compounds of formula (1) at the following concentrations: 30 μM, 10 μM, 1 μM, 300 nM, 100 nM 10 nM, 1 nM, 100 pM, 10 pM. The competitive binding data were analysed using the iterative, nonlinear, curve-fitting program, “Prism” (GraphPad Software, Inc).
The ability of triazole derivatives of formula (I) to inhibit the binding of ^125I-OVTA to the OT-receptor was assessed using the above described in vitro biological assay. Representative values for some example compounds are given in Table 3 where the binding affinity of the compounds is expressed by the inhibition constant (Ki; μM). From these values, it can be derived that said test compounds according to formula I do show a significant binding to the oxytocin receptor.

[2] = molecular target: T2, hOT receptor (Homo sapiens, UniProt P30559); experiment: Inhibition of oxytocin mediated Ca2+-mobilization by FLIPR in HEK293EBNA cells expressing the hOT receptor; assay type: cell-based; conditions: OT 40 nM, fluo-4 FLIPR, read-out: Inhibition of Ca2+ mobilisation, hOT-R IC50
T2 construct: expressed in transfected cells; host or cells: HEK293EBNA
T2 sequence (P30559 1-389): T1 sequence (P30559 1-389)
Description: c) Functional Assay No. 1: Inhibition of Oxytocin Mediated Ca^2+-mobilization by FLIPR® (Fluorimetric Imaging Plate Reader)
The action of OT on the OT-receptor triggers a complex cascade of events in the cell which leads to an increase in the intra-cytoplasmic Ca^2+ concentration. This increase in Ca^2+ concentration results from both calcium release from the sarcoplasmic reticulum (calcium stores) into the cytoplasm and from calcium influx from the extracellular space through Ca^2+ channels. This Ca^2+ mobilization into the cytoplasm triggers the contractile machinery of the myometrial cells which leads to uterine contractions (4 and 19).
This assay allows the measurement of the inhibition of OT/OT-R mediated calcium mobilization by test compounds of formula (1).
FLIPR® is a fluorimetric imaging device using a laser (Argon-ion laser) for simultaneous illumination and reading (cooled CCD camera) of each well of a 96-well-plate, thus enabling rapid measurements on a large number of samples.
Preparing the plates: FLIPR-plates were pre-coated with PLL (Poly-L-Lysine) 10 μg/ml+0.1% gelatine to attach HEK293EBNA cells (Human Embryonic Kidney cells expressing the hOT receptor) and incubated for 30 min up to 2 days at 37° C. The cells were plated out into 96-well-plates (60000 cells/well).
Labelling with fluo-4: 50 μg of fluo-4 (Ca2+ sensitive fluorescent dye) were dissolved in 20 μl pluronic acid (20% in DMSO). The dissolved fluo-4 was then diluted in 10 ml DMEM ([…])-F12 culture medium. […]
The relative fluorescence of Fluo (λex=488 nm, λem=590 nm) is then measured by the FLIPR in presence or absence of compounds of formula (I). The fluorescence of the marker being sensitive to the amount of Ca^2+, the Ca^2+ movements can be detected. Then, it can be determined the ability of compounds of formula (I) to antagonize the oxytocin-induced intracellular Ca^2+-mobilization mediated by the oxytocin receptor.
The activities of the triazole derivatives according to formula I were assessed using the above described in vitro biological assay. […]

[3] = system: oxytocin-induced uterine contractions; experiment: In vivo model for inhibition of oxytocin-induced uterine contractions; design: species or system rat; conditions: dose 10 mg/kg, anaesthetised DES-treated non-pregnant female rats
Method: f) In vivo Model for Inhibition of Uterine Contractions
The assay evaluates the biological effect of tested compounds in an in vivo model of preterm labor, premature birth.
Non-pregnant Charles River CD (SD) BR female rats (9-10 weeks old, 200-250 g) were treated at 18 and 24 hours before the experiment with 250 μg/kg, i.p. diethylstilbestrol (DES). For the assay, the animal was anaesthetised with urethane (1.75 g/kg, i.p.) and placed on a homeothermic operating table. The trachea was isolated and cannulated with a suitable polyethylene (PE) tubing. A midline incision at the hypogastrium level was made and one uterine horn exposed, its cephalic end cannulated with a PE240 tubing and, after filling the internal cavity with 0.2 ml of sterile physiological saline, connected to a “Gemini” amplifying/recording system via a P23ID Gould Statham pressure transducer. […]
The contractile response of the uterus to oxytocin was quantified by measuring the intra-uterine pressure and the number of contractions. The effect of the reference and test compounds was evaluated by comparing pre- and post-treatment pressure values. […]
The activities of the triazole derivatives claimed in the Formula I can be assessed using the above described in vivo biological assay. […]

| Ki [1] | IC50 [2] | Structure (SMILES) | % Reduction of Uterine Contraction [3] |
| --- | --- | --- | --- |
| 2550 nM | 486 nM | COc1ccccc1CNC(=O)CCCc1nnc(SCc2cccc(Cl)c2)n1-c1ccccc1 [Example 137, 4-{5-[(3-chlorobenzyl)sulfanyl]-4-phenyl-4H-1,2,4-triazol-3-yl}-N-(2-methoxybenzyl)butanamide] |  |
| 515 nM |  | COc1ccccc1CNC(=O)CCCCc1nnc(SCc2cccc(C)c2)n1CCc1ccccc1 [Example 189, N-(2-methoxybenzyl)-5-[5-[(3-methylbenzyl)sulfanyl]-4-(2-phenylethyl)-4H-1,2,4-triazol-3-yl]pentanamide] |  |
| 197 nM |  | COc1cccc(-n2c(CCC(=O)NCc3ccccc3OC)nnc2SCc2cccc(C)c2)c1 [Example 16, N-(2-methoxybenzyl)-3-{4-(3-methoxyphenyl)-5-[(3-methylbenzyl)sulfanyl]-4H-1,2,4-triazol-3-yl}propanamide] |  |
| 439 nM |  | COc1ccccc1CNC(=O)CCc1nnc(SCc2ccccc2)n1-c1cccc(Cl)c1 [Example 12, 3-[5-(benzylsulfanyl)-4-(3-chlorophenyl)-4H-1,2,4-triazol-3-yl]-N-(2-methoxybenzyl)propanamide] |  |
| 481 nM |  | COc1ccccc1CNC(=O)CCCCc1nnc(SCc2cccc(Cl)c2)n1-c1cccc(Cl)c1 [Example 184, 5-[5-[(3-chlorobenzyl)sulfanyl]-4-(3-chlorophenyl)-4H-1,2,4-triazol-3-yl]-N-(2-methoxybenzyl)pentanamide] |  |
| 245 nM |  | CCCCNC(=O)CCc1nnc(SCc2cccc(Cl)c2)n1-c1cccc(Cl)c1 [Example 15, N-butyl-3-[5-[(3-chlorobenzyl)sulfanyl]-4-(3-chlorophenyl)-4H-1,2,4-triazol-3-yl]propanamide] |  |
| 603 nM | 58 nM | COc1ccccc1CNC(=O)CCCCc1nnc(SCc2cccc(Cl)c2)n1-c1ccccc1 [Example 185, 5-{5-[(3-chlorobenzyl)sulfanyl]-4-phenyl-4H-1,2,4-triazol-3-yl}-N-(2-methoxybenzyl)pentanamide] |  |

More lines, now with the values behind:

| Structure (SMILES) | Ki [1] | IC50 [2] | % Reduction of Uterine Contraction [3] |
| --- | --- | --- | --- |
| COc1ccccc1CNC(=O)CCc1nnc(SCc2cccc(Cl)c2)n1-c1cccc(C)c1 [Example 8, 3-[5-[(3-chlorobenzyl)sulfanyl]-4-(3-methylphenyl)-4H-1,2,4-triazol-3-yl]-N-(2-methoxybenzyl)propanamide] | 229 nM |  |  |
| COCCCn1c(CCC(=O)NCc2ccccc2OC)nnc1SCc1cccc(Cl)c1 [Example 4, 3-[5-[(3-chlorobenzyl)sulfanyl]-4-(3-methoxypropyl)-4H-1,2,4-triazol-3-yl]-N-(2-methoxybenzyl)propanamide] | 326 nM |  |  |
| COc1ccccc1CNC(=O)CCc1nnc(SCc2ccc(F)cc2)n1-c1cccc(Cl)c1 [Example 11, 3-{4-(3-chlorophenyl)-5-[(4-fluorobenzyl)sulfanyl]-4H-1,2,4-triazol-3-yl}-N-(2-methoxybenzyl)propanamide] | 329 nM |  |  |
| COc1cccc(-n2c(CCC(=O)NCc3ccccc3OC)nnc2SCc2cccc(Cl)c2)c1 [Example 1, 3-[5-[(3-chlorobenzyl)sulfanyl]-4-(3-methoxyphenyl)-4H-1,2,4-triazol-3-yl]-N-(2-methoxybenzyl)propanamide] | 45 nM | 26 nM | 16.9 ± 5.1% |
| COc1ccccc1CNC(=O)CCc1nnc(SCc2ccccc2)n1-c1ccc(C)cc1 [Example 9, 3-[5-(benzylsulfanyl)-4-(4-methylphenyl)-4H-1,2,4-triazol-3-yl]-N-(2-methoxybenzyl)propanamide] | 205 nM |  |  |
| COc1ccccc1CNC(=O)CCc1nnc(SCc2cccc(C)c2)n1-c1cccc(Cl)c1 [Example 3, 3-{4-(3-chlorophenyl)-5-[(3-methylbenzyl)sulfanyl]-4H-1,2,4-triazol-3-yl}-N-(2-methoxybenzyl)propanamide] | 134 nM |  |  |
| COc1ccccc1CNC(=O)CCc1nnc(SCc2cccc(C)c2)n1Cc1ccc(C)cc1 [Example 6, N-(2-methoxybenzyl)-3-{4-(4-methylbenzyl)-5-[(3-methylbenzyl)sulfanyl]-4H-1,2,4-triazol-3-yl}propanamide] | 246 nM |  |  |
| COc1ccccc1CNC(=O)CCc1nnc(SCc2cccc(F)c2)n1-c1ccc(C)cc1 [Example 5, 3-[5-[(3-fluorobenzyl)sulfanyl]-4-(4-methylphenyl)-4H-1,2,4-triazol-3-yl]-N-(2-methoxybenzyl)propanamide] | 127 nM |  |  |
